Assay results as given in patent US10787462B2, “Heterocyclic compound” (TAKEDA PHARMACEUTICAL COMPANY LIMITED, priority 2015, dated 2020).

What follows are compounds tested against T1, human RIPK1 (1-375) (Homo sapiens, UniProt Q13546) (assay: Human RIPK1 enzyme inhibitory effect (ADP-Glo Kinase Assay)). Conditions: 10 μM test compound; well without enzyme = 100% inhibition; 10 µM.
T1 construct: human RIPK1 (1-375) gene; GST; made in house; host or cells: Sf-9 insect cells
T1 sequence (Q13546 1-375): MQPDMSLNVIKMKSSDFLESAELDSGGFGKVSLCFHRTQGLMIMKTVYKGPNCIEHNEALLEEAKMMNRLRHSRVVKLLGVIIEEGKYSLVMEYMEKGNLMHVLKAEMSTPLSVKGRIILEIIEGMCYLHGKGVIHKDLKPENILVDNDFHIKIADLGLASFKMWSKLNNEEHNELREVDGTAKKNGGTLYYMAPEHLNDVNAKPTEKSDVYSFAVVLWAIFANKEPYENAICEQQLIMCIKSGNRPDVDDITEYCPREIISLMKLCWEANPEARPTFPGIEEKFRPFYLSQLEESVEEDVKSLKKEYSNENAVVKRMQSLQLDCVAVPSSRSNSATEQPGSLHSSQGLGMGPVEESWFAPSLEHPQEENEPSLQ
Assay type: biochemical
Summary of the method: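 ADP-Glo luminescence read-out of ADP formed over 120 min at room temperature after adding 0.6 mM ATP solution (stock concentration). Compound and Sf-9-expressed, GST-purified RIPK1 (1-375) were first incubated together for 20 min in HEPES pH 7.5 buffer with MgCl2, Tween-20 and DTT.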

human RIPK1 enzyme inhibitory effect at 10 μM (% inhibition) | Compound
100% | CN1C(=O)C(N2CCc3c(nn(Cc4ccccc4F)c3Cl)C2=O)CCc2c1cnn2C (stereo not shown) [Example 131, 6-(3-chloro-2-(2-fluorobenzyl)-7-oxo-2,4,5,7-tetrahydro-6H-pyrazolo[3,4-c]pyridin-6-yl)-1,4-dimethyl-4,6,7,8-tetrahydropyrazolo[4,3-b]azepin-5(1H)-one]
89% | CN1C(=O)C(N2CCc3c(nn(Cc4ccccc4F)c3Cl)C2=O)CCc2c1cnn2C (stereo not shown) [Example 132, 6-(3-chloro-2-(2-fluorobenzyl)-7-oxo-2,4,5,7-tetrahydro-6H-pyrazolo[3,4-c]pyridin-6-yl)-1,4-dimethyl-4,6,7,8-tetrahydropyrazolo[4,3-b]azepin-5(1H)-one]

Continued, compound first:

Compound | human RIPK1 enzyme inhibitory effect at 10 μM (% inhibition)
CN1C(=O)C(N2CCc3c(nn(Cc4ccccc4)c3Cl)C2=O)CCc2c1cnn2C (stereo not shown) [Example 127, 6-(2-benzyl-3-chloro-7-oxo-2,4,5,7-tetrahydro-6H-pyrazolo[3,4-c]pyridin-6-yl)-1,4-dimethyl-4,6,7,8-tetrahydropyrazolo[4,3-b]azepin-5(1H)-one] | 100%
CN1C(=O)C(N2CCc3c(nn(Cc4ccccc4)c3Cl)C2=O)CCc2c1cnn2C (stereo not shown) [Example 128, 6-(2-benzyl-3-chloro-7-oxo-2,4,5,7-tetrahydro-6H-pyrazolo[3,4-c]pyridin-6-yl)-1,4-dimethyl-4,6,7,8-tetrahydropyrazolo[4,3-b]azepin-5(1H)-one] | 84%

Same assay, conditions: read-out: human RIPK1 enzyme inhibitory effect at 10 μM (% inhibition), 10 μM test compound; well without enzyme = 100% inhibition

inhibition at 10 µM | Compound
98% | CN1C(=O)[C@@H](N2CCc3c(nn(Cc4ccccc4)c3OC(F)F)C2=O)COc2cc(Br)ccc21 [Example 123, (3S)-3-(2-benzyl-3-(difluoromethoxy)-7-oxo-2,4,5,7-tetrahydro-6H-pyrazolo[3,4-c]pyridin-6-yl)-8-bromo-5-methyl-2,3-dihydro-1,5-benzoxazepin-4(5H)-one]
98% | CN1C(=O)[C@@H](N2CCc3c(nn(Cc4ccccc4)c3OC(F)F)C2=O)COc2cc(C#N)ccc21 [Example 124, (32)-3-(2-benzyl-3-(difluoromethoxy)-7-oxo-2,4,5,7-tetrahydro-6H-pyrazolo[3,4-c]pyridin-6-yl)-5-methyl-4-oxo-2,3,4,5-tetrahydro-1,5-benzoxazepine-8-carbonitrile]
101% | CN1C(=O)[C@@H](N2CCc3c(nn(Cc4ccccc4)c3Cl)C2=O)COc2cc(-c3ccn(C)n3)c(F)cc21 [Example 125, (3S)-3-(2-benzyl-3-chloro-7-oxo-2,4,5,7-tetrahydro-6H-pyrazolo[3,4-c]pyridin-6-yl)-7-fluoro-5-methyl-8-(1-methyl-1H-pyrazol-3-yl)-2,3-dihydro-1,5-benzoxazepin-4(5H)-one]
98% | CN1C(=O)C(N2CCc3c(nn(Cc4ccccc4)c3Cl)C2=O)CCc2c1cnn2C (stereo not shown) [Example 126, 6-(2-benzyl-3-chloro-7-oxo-2,4,5,7-tetrahydro-6H-pyrazolo[3,4-c]pyridin-6-yl)-1,4-dimethyl-4,6,7,8-tetrahydropyrazolo[4,3-b]azepin-5(1H)-one]
98% | CN1C(=O)C(N2CCc3c(nn(Cc4ccccc4F)c3Cl)C2=O)CCc2c1cnn2C (stereo not shown) [Example 129, 6-(3-chloro-2-(2-fluorobenzyl)-7-oxo-2,4,5,7-tetrahydro-6H-pyrazolo[3,4-c]pyridin-6-yl)-1,4-dimethyl-4,6,7,8-tetrahydropyrazolo[4,3-b]azepin-5(1H)-one]
100% | CN1C(=O)C(N2CCc3c(nn(Cc4c(F)cccc4F)c3Cl)C2=O)CCc2c1cnn2C (stereo not shown) [Example 130, 6-(3-chloro-2-(2,6-difluorobenzyl)-7-oxo-2,4,5,7-tetrahydro-6H-pyrazolo[3,4-c]pyridin-6-yl)-1,4-dimethyl-4,6,7,8-tetrahydropyrazolo[4,3-b]azepin-5(1H)-one]
